From patent US12351569B2, “ALDH-2 inhibitor compounds and methods of use” (Amygdala Neurosciences, Inc., priority 2022, dated 2025) come the findings set out here.

The structures appear in SMILES notation.

In one series the target is T1, MAO-A (Homo sapiens, UniProt P21397).
T1 sequence (P21397 1-527): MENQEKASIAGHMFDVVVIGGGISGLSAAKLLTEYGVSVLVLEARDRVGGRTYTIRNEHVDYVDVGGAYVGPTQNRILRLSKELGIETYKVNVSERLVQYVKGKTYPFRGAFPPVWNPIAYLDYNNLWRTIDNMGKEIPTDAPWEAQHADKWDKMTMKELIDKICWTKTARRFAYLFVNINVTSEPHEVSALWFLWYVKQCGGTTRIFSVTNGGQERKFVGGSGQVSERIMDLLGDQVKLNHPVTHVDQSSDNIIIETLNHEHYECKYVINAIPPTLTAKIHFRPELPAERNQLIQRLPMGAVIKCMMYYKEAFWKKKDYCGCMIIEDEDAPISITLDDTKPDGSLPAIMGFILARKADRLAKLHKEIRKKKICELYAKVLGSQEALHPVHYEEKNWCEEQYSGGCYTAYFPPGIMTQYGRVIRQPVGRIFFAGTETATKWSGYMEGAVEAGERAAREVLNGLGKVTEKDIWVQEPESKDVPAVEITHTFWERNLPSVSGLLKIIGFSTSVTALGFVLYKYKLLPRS
The experiment in a line: MAO-A inhibition assay (luminogenic substrate). Type of series: biochemical. The following applies: 20 min pre-incubation; 10 μM = highest concentration tested; read-out: Enzymatic Assays IC50 MAO-A. On the procedure: (§1) D. MAO-A and MAO-B inhibition assays: MAO assays included luminogenic MAO substrate, reaction buffers, Luciferin Detection, and a reconstitution buffer with esterase. The MAO reaction mixture used in the assay included microsome contained MAO-A (2 μg) or MAO-B (10 μg), 160 μM substrate for MAO-A or 16 μM substrate for MAO-B, MAO-A buffer (100 mM Hepes buffer, pH 7.5, 5% glycerol) or MAO-B buffer (100 mM Hepes, pH 7.5, 5% glycerol, 10% dimethyl sulfoxide) in a final volume of 30 μL. After 20 minutes of pre-incubation of the MAO-A or MAO-B enzyme with the test ALDH-2 inhibitor compound, the reaction was initiated by adding enzyme substrate and the […] reaction was allowed to proceed for 60 minutes. Reconstituted Luciferin Detection Reagent (30 μL) was then added is added to simultaneously stop the MAO reaction and convert the methyl ester derivative to luciferin and produce light. The amount of light produced is directly proportional to the activity of MAO. The mixtures were further incubated for 20 minutes and activity of the enzyme was determined using Perkin-Elmer Envision Reader.

The next series addresses T2, MAO-B (Homo sapiens, UniProt P27338).
T2 sequence (P27338 1-520): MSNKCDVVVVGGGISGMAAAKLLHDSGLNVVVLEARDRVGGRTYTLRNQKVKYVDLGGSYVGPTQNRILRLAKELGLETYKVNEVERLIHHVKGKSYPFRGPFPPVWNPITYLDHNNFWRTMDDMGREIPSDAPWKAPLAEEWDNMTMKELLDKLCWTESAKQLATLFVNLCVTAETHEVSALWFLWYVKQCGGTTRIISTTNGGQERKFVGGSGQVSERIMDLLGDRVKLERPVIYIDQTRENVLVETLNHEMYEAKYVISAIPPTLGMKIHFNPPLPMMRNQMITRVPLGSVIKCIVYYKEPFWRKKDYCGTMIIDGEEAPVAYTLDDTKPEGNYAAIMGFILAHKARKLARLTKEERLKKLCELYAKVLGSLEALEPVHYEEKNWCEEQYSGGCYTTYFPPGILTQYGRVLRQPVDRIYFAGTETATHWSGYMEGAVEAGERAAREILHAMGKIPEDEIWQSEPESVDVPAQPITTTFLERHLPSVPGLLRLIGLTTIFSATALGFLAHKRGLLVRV
The experiment in a line: MAO-B inhibition assay (luminogenic substrate). Type of series: biochemical. The following applies: 20 min pre-incubation; 10 μM = highest concentration tested; read-out: Enzymatic Assays IC50 MAO-B. On the procedure: as §1

The target in the next series is T3, recombinant human ALDH-1 (Homo sapiens, UniProt P00352).
T3 sequence (P00352 1-501): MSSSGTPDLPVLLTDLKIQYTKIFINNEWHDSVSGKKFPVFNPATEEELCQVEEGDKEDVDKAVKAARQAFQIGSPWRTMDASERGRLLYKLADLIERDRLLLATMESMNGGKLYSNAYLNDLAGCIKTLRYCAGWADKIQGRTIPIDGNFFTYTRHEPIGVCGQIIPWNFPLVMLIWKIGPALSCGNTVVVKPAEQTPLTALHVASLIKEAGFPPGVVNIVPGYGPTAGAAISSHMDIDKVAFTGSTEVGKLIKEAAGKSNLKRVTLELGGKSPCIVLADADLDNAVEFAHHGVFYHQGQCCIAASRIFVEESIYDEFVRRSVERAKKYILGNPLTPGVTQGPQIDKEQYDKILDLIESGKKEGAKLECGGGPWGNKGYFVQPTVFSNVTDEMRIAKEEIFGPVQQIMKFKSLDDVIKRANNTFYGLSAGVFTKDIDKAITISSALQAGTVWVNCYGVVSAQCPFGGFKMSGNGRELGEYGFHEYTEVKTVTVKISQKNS
The experiment in a line: ALDH-1 inhibition assay. Type of series: biochemical. To be noted: 60 min pre-incubation; 10 μM = highest concentration tested; read-out: Enzymatic Assays IC50 ALDH1.

For a further series, the target named is T4, recombinant human ALDH-2 (Homo sapiens, UniProt P05091).
T4 sequence (P05091 18-517): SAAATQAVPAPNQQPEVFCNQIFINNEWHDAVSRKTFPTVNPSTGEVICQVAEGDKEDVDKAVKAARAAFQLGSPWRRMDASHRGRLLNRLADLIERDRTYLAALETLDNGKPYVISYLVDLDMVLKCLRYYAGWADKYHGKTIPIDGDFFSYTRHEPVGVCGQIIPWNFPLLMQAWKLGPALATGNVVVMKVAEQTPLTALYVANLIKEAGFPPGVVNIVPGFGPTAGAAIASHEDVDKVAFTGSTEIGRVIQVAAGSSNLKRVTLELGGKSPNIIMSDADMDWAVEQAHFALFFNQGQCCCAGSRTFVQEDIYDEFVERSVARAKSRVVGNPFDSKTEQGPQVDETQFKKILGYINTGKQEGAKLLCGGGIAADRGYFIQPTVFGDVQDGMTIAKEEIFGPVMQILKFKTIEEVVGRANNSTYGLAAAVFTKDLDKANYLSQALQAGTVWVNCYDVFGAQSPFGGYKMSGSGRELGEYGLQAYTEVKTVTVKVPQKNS
The series is described as follows: ALDH-2 inhibition assay. The following applies: 60 min pre-incubation; 10 μM = highest concentration tested; read-out: Enzymatic Assays IC50 ALDH2. Type of series: biochemical.

Another series deals with HepaRG spheroids. The series is described as follows: HepaRG 3D spheroid assay (hepatotoxic liability). Type of series: cell-based. The following applies: minimum effective concentration crossing vehicle control threshold of cell health marker; dosed days 1, 4, 7, 10, 13; 100 μM = highest concentration tested. The text has this: See e.g., Walker et al., “The evolution of strategies to minimise the risk of human drug-induced liver injury (DILI) in drug discovery and development,” (2020) Archives of Toxicology, Vol. 94: 2559-2585, which is hereby incorporated by reference herein in its entirety. […] In applying the HepaRG spheroid assay analysis to determining the hepatoxic liability of ALDH-2 inhibitor compounds, consideration is made of the binding to plasma protein and the limitations to CNS penetration due to the blood-brain barrier.
E. HepaRG® 3D spheroid assay: The HepaRG 3D spheroid assay is described in Walker et al., “The evolution of strategies to minimise the risk of human drug-induced liver injury (DILI) in drug discovery and development,” (2020) Archives of Toxicology, Vol. 94: 2559-2585. Briefly, HepaRG® cells were seeded into ultra-low adhesion 96-well black walled clear bottomed spheroid microplates. […] At the end of the incubation period, the spheroids were loaded with the relevant dye/antibody for each cell health marker (spheroid count, spheroid size, DNA structure, mitochondrial mass, mitochondrial membrane potential, oxidative stress, glutathione content, and cellular ATP). The plates were then scanned using an automated fluorescent cellular imager, ArrayScan® (Thermo Scientific Cellomics).

Description for recombinant human ALDH-1: B. ALDH-1 inhibition assay: The ALDH-1 reaction mixture used in the assay contained 100 μM formaldehyde, 2.5 mM NAD+, 20 mM NaCl, 10 mM MgCl2, 1 mM dithiothreitol (DTT; reducing agent), and 50 nM recombinant human ALDH-1 in 50 mM Hepes buffer, pH 7.5 in a final volume of 10 μL using 384-well Corning 3820 plates. After 60 min of pre-incubation of the test ALDH-2 inhibitor compound with ALDH-1, the reaction was started by adding NAD+ and formaldehyde and the assay reaction mixture was allowed to proceed for 60 minutes. Activity of the ALDH-1 enzyme was determined by monitoring NADH formation using Perkin-Elmer Envision Reader with excitation and emission wavelengths set at 340 and 460 nm, respectively.
Description for recombinant human ALDH-2: A. ALDH-2 inhibition assay: The ALDH-2 reaction mixture used in the assay contained 125 μM formaldehyde, 75 μM NAD+, 20 mM NaCl, 10 mM MgCl2, and 20 nM recombinant human ALDH-2 in 50 mM Hepes buffer, pH 7.5 in a final volume of 10 μL using 384-well Corning 3820 plates. After 60 min of pre-incubation of the test ALDH-2 inhibitor compound with ALDH-2, the reaction was started by adding NAD+ and formaldehyde and the assay reaction mixture was allowed to proceed for 60 minutes. Activity of the ALDH-2 enzyme was determined by monitoring NADH formation using Perkin-Elmer Envision Reader with excitation and emission wavelengths set at 340 and 460 nm, respectively.

As for `Cc1cccc(Cl)c1C(=O)NCc1ccc(N2CCNC(=O)C2)nc1` [(1a), 2-chloro-6-methyl-N-((6-(3-oxopiperazin-1-yl)pyridin-3-yl)methyl)benzamide], the IC50 was greater than 10 µM at MAO-A, greater than 10 µM at MAO-B, greater than 10 µM at recombinant human ALDH-1 and 0.012 µM on recombinant human ALDH-2. Besides, the “HepaRG 3D Spheroid MEC” value in the series with HepaRG spheroids came out at 54.1 µM.
For the molecule `Cc1nccc(Cl)c1C(=O)NCc1ccc(N2CCNC(=O)C2)nc1` [(1c), 4-Chloro-2-methyl-N-((6-(3-oxopiperazin-1-yl)pyridin-3-yl)methyl)nicotinamide], the IC50 was greater than 10 µM on MAO-A, greater than 10 µM at MAO-B, greater than 10 µM at recombinant human ALDH-1 and 0.035 µM at recombinant human ALDH-2. For the same molecule, the “HepaRG 3D Spheroid MEC” value in the series with HepaRG spheroids is given as “No Effect”.
In the case of `O=C1CN(c2ccc(CNC(=O)c3ccccc3Cl)cn2)CCN1` [(1b), 2-Chloro-N-((6-(3-oxopiperazin-1-yl)pyridin-3-yl)methyl)benzamide], the IC50 is greater than 10 µM at MAO-A, greater than 10 µM at MAO-B, greater than 10 µM on recombinant human ALDH-1 and 0.058 µM on recombinant human ALDH-2. The “HepaRG 3D Spheroid MEC” value with HepaRG spheroids is “No Effect”.
For `O=C1CN(c2ccc(CNC(=O)c3c(Cl)cccc3Cl)cn2)CCN1` [(1d), 2,6-Dichloro-N-((6-(3-oxopiperazin-1-yl)pyridin-3-yl)methyl)benzamide], the IC50 at MAO-A was greater than 10 µM; on MAO-B, greater than 10 µM; on recombinant human ALDH-1, greater than 10 µM; at recombinant human ALDH-2 it was 0.008 µM. Moreover, the “HepaRG 3D Spheroid MEC” value with HepaRG spheroids amounted to 29.4 µM.
